In PubChem BioAssay (NCI):
Several values for one entry are separate records, joined by “and”; a condition that tells them apart may be missing. Equal entries are not always repeated.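 Exposure lasted 48 hours, with cells grown in 96-well plates and compounds tested at five concentrations. GI50 marks 50% less growth. TGI marks complete inhibition of growth.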

How the values were obtained:
Assay in all cases: NCI-60 cell line screen, 48 h
RXF 393 renal = test system: RXF 393 renal
CAKI-1 renal = test system: CAKI-1 renal
RPMI-8226 leukemia = test system: RPMI-8226 leukemia
NCI/ADR-RES ovarian = test system: NCI/ADR-RES ovarian
A549 NSCLC = test system: A549 NSCLC
MDA-MB-435 = test system: MDA-MB-435
SK-MEL-5 melanoma = test system: SK-MEL-5 melanoma
NCI-H226 lung = test system: NCI-H226 lung

SMILES	GI50 (RXF 393 renal)	TGI (RXF 393 renal)	GI50 (CAKI-1 renal)	TGI (CAKI-1 renal)	GI50 (RPMI-8226 leukemia)	TGI (RPMI-8226 leukemia)	GI50 (NCI/ADR-RES ovarian)	TGI (NCI/ADR-RES ovarian)	GI50 (A549 NSCLC)	TGI (A549 NSCLC)	GI50 (MDA-MB-435)	TGI (MDA-MB-435)	GI50 (SK-MEL-5 melanoma)	TGI (SK-MEL-5 melanoma)	GI50 (NCI-H226 lung)	TGI (NCI-H226 lung)
O=C(O)c1cc[c]([Hg][S]c2ncnc3nc[nH]c23)cc1	2.95 µM	18.8 µM	4.96 µM	21.1 µM	4.91 µM	28.2 µM	3.75 µM	30.6 µM	16.4 µM	33.7 µM	3.81 µM	16.8 µM	14.1 µM	36.4 µM	> 39 µM	> 68 µM
COc1cc2cc(Oc3ccc(NC(=O)c4cccc(C(F)(F)F)c4)cc3)c(C)nc2cc1OC	6.07 µM	> 100 µM	2.75 µM	> 100 µM	3.67 µM	> 100 µM	4.02 µM	> 100 µM	4.28 µM	> 100 µM	5.39 µM	> 100 µM	2.45 µM	8.84 µM	7.84 µM	> 100 µM
CC1(C)N=C(N)N=C(N)N1c1ccc(CCc2ccccc2)c(Cl)c1	0.829 µM	17.6 µM	3.99 µM	> 48.8 µM	0.336 µM	14 µM	37 µM	> 100 µM	0.0452 µM	14 µM	0.0528 µM	15.7 µM	0.124 µM	1.33 µM	0.521 µM	17.1 µM
S=C(N/N=C/c1cc(Cl)cc(Cl)c1)NC12CC3CC(CC(C3)C1)C2	4.19 µM	> 37.2 µM	3.6 µM	92.8 µM	> 100 µM	> 100 µM	7.2 µM	> 100 µM	3.51 µM	> 100 µM	> 27.6 µM	> 100 µM	> 100 µM	> 100 µM	> 29.9 µM	> 100 µM
C#C[C@]1(O)CC[C@H]2[C@@H]3CC=C4c5nc(Nc6ccccn6)sc5CC[C@]4(C)[C@H]3CC[C@@]21C	0.218 µM	0.468 µM	1.26 µM	3.1 µM	0.182 µM	0.602 µM	1.72 µM	6.1 µM	1.94 µM	11.1 µM	1.55 µM	4.45 µM	1.6 µM	2.98 µM	1.51 µM	3.91 µM
CN1CCCN(CCNc2nccc(-c3c(-c4cccc(O)c4)nc4sccn34)n2)S1(=O)=O	5.26 µM and 2.72 µM	31 µM and 21.6 µM	2.25 µM and 2.15 µM	23.5 µM and 16.3 µM	16.7 µM and 15.2 µM	37.2 µM and 41.3 µM	22.5 µM and 31.1 µM	75 µM and > 100 µM	7.46 µM and 7.71 µM	75 µM and > 100 µM	0.285 µM and 0.438 µM	20.6 µM and > 71.8 µM	1.17 µM and 1.23 µM	11.2 µM and 13.8 µM	15.3 µM and 11.3 µM	50 µM and 54.5 µM
CCN(c1ccc(CO)c(Cl)c1)C(C)c1ccc(F)cc1 (configuration not stated)	11 µM	26 µM	8.46 µM	21.7 µM	11.8 µM	39.2 µM	14.5 µM	31.2 µM	13.1 µM	27.9 µM	17.3 µM	32.5 µM	14.5 µM	28 µM	0.49 µM	2.31 µM
